Results from PubChem BioAssay (NCI).
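48-hour exposure; five concentrations; linearly interpolated endpoints. Definition used: TGI = concentration required for complete inhibition of growth.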

Assays:
Test in all cases: NCI-60 cell line screen, 48 h
[1] = system: 786-0 renal
[2] = system: A498 renal
[3] = system: A549 NSCLC
[4] = system: ACHN renal
[5] = system: BT-549 breast
[6] = system: CAKI-1 renal
[7] = system: CCRF-CEM leukemia
[8] = system: COLO 205 colon
[9] = system: DU-145 prostate
[10] = system: EKVX NSCLC
[11] = system: HCC-2998 colon
[12] = system: HCT-116 colon
[13] = system: HCT-15 colon
[14] = system: HL-60(TB) leukemia
[15] = system: HOP-62 NSCLC
[16] = system: HOP-92 NSCLC
[17] = system: HS 578T breast
[18] = system: HT29 colon
[19] = system: IGROV1 ovarian
[20] = system: K-562 leukemia
[21] = system: KM12 colon
[22] = system: LOX IMVI melanoma
[23] = system: M14 melanoma
[24] = system: MALME-3M melanoma
[25] = system: MCF7 breast
[26] = system: MDA-MB-231 breast
[27] = system: MDA-MB-435
[28] = system: MDA-N
[29] = system: MOLT-4 leukemia
[30] = system: NCI-H226 lung
[31] = system: NCI-H23 lung
[32] = system: NCI-H460 lung
[33] = system: NCI-H522 lung
[34] = system: NCI/ADR-RES ovarian
[35] = system: OVCAR-3 ovarian
[36] = system: OVCAR-4 ovarian
[37] = system: OVCAR-5 ovarian
[38] = system: OVCAR-8 ovarian
[39] = system: PC-3 prostate
[40] = system: RPMI-8226 leukemia
[41] = system: SF-268 CNS
[42] = system: SF-295 CNS
[43] = system: SF-539 CNS
[44] = system: SK-MEL-2 melanoma
[45] = system: SK-MEL-28 melanoma
[46] = system: SK-MEL-5 melanoma
[47] = system: SK-OV-3 ovarian
[48] = system: SN12C renal
[49] = system: SNB-19 CNS
[50] = system: SNB-75 CNS
[51] = system: SR leukemia
[52] = system: SW-620 colon
[53] = system: T-47D breast
[54] = system: TK-10 renal
[55] = system: U251 CNS
[56] = system: UACC-257 melanoma
[57] = system: UACC-62 melanoma
[58] = system: UO-31 renal
[59] = system: RXF 393 renal

Cc1cc(O)c2c(c1)C(=O)C=C(Br)C2=O
TGI [1]: 31.3 µM
TGI [2]: 38.2 µM
TGI [3]: > 60.5 µM
TGI [4]: 29.3 µM
TGI [5]: 30.6 µM
TGI [6]: 27.7 µM
TGI [7]: 4.1 µM
TGI [8]: 19.2 µM
TGI [9]: 17 µM
TGI [10]: > 61.2 µM
TGI [11]: > 58.1 µM
TGI [12]: 30.8 µM
TGI [13]: 27.4 µM
TGI [14]: 1.71 µM
TGI [15]: > 100 µM
TGI [16]: 27 µM
TGI [17]: 35.6 µM
TGI [18]: 40.3 µM
TGI [19]: > 60.2 µM
TGI [20]: 3.38 µM
TGI [21]: > 55.8 µM
TGI [22]: 25.4 µM
TGI [23]: 29.5 µM
TGI [24]: 17.2 µM
TGI [25]: 23.4 µM
TGI [26]: 33.8 µM
TGI [27]: 27.6 µM
TGI [28]: 28.7 µM
TGI [29]: 4.45 µM
TGI [30]: 34.8 µM
TGI [31]: 35.5 µM
TGI [32]: 45.9 µM
TGI [33]: 7.34 µM
TGI [34]: 43.1 µM
TGI [35]: 30.6 µM
TGI [36]: 24 µM
TGI [37]: 29.7 µM
TGI [38]: 42.3 µM
TGI [39]: 31.8 µM
TGI [40]: 23 µM
TGI [41]: 98.9 µM
TGI [42]: > 60.5 µM
TGI [43]: 29.8 µM
TGI [44]: 31.2 µM
TGI [45]: 29.7 µM
TGI [46]: 27.4 µM
TGI [47]: > 100 µM
TGI [48]: 31 µM
TGI [49]: > 100 µM
TGI [50]: 31 µM
TGI [51]: 42 µM
TGI [52]: 12.2 µM
TGI [53]: 14.9 µM
TGI [54]: 30.1 µM
TGI [55]: 95.1 µM
TGI [56]: 26.5 µM
TGI [57]: 32.4 µM
TGI [58]: 28.9 µM

CN1C(=O)CN=C(c2ccccc2F)c2cc(N=C=S)ccc21
TGI [1]: > 100 µM
TGI [2]: > 100 µM
TGI [3]: > 100 µM
TGI [4]: > 100 µM
TGI [5]: > 100 µM
TGI [6]: 25.2 µM
TGI [7]: > 100 µM
TGI [9]: > 100 µM
TGI [10]: > 100 µM
TGI [11]: > 100 µM
TGI [12]: > 100 µM
TGI [13]: > 100 µM
TGI [14]: > 100 µM
TGI [15]: > 100 µM
TGI [16]: > 100 µM
TGI [17]: > 100 µM
TGI [18]: > 100 µM
TGI [19]: > 100 µM
TGI [21]: > 100 µM
TGI [22]: > 100 µM
TGI [23]: > 100 µM
TGI [24]: > 100 µM
TGI [25]: > 100 µM
TGI [26]: > 100 µM
TGI [27]: > 100 µM
TGI [28]: > 100 µM
TGI [31]: > 100 µM
TGI [32]: > 100 µM
TGI [33]: 45.2 µM
TGI [34]: > 100 µM
TGI [35]: > 100 µM
TGI [36]: > 100 µM
TGI [37]: > 100 µM
TGI [38]: > 100 µM
TGI [39]: > 100 µM
TGI [59]: 87.7 µM
TGI [41]: > 100 µM
TGI [42]: > 100 µM
TGI [44]: > 100 µM
TGI [47]: > 100 µM
TGI [48]: > 100 µM
TGI [49]: > 100 µM
TGI [50]: > 100 µM
TGI [52]: > 100 µM
TGI [53]: > 100 µM
TGI [54]: > 100 µM
TGI [55]: > 100 µM
TGI [56]: > 100 µM
TGI [57]: > 100 µM
TGI [58]: > 100 µM
